From PMC9607427, “Novel 7-Chloro-(4-thioalkylquinoline) Derivatives: Synthesis and Antiproliferative Activity through Inducing Apoptosis and DNA/RNA Damage” (Pharmaceuticals, 2022) come the findings set out here.

Series [1] in a line: Cytotoxic MTS assay, whole panel of tested cell lines. To be noted: human; MTS, 72 h of incubation, all tested cell lines; read-out: Cytotoxic activity IC50, tested cell lines (considered inactive). The format is cell-based, human. How it is done:
In vitro cytotoxic activity of final compounds 5–82 was evaluated after 3 days of incubation against eight cell lines derived from human solid tumors including lung (A549 cells) and colon (HCT116 and HCT116p53−/−) carcinomas, as well as leukemia cell lines (CCRF-CEM, CEM-DNR, K562, and K562-TAX) and osteosarcoma (U2OS cells). For comparison, non-malignant BJ and MRC-5 fibroblasts, and BJLD and MCR-5LD fibroblasts doxorubicin-resistant cell lines were used. Concentrations inhibiting the cell growth by 50% (IC50) were determined using a quantitative metabolic staining with 3-(4,5-dimethylthiazol-2yl)-5-(3-carboxymethoxyphenyl)-2-(4-sulfophenyl)-2H-tetrazolium (MTS) and are summarized in (Table 3).
Cytotoxic activity was determined by MTS assay following 72 h of incubation. IC50 is the lowest concentration that kills 50% of cells. The standard deviation in cytotoxicity assays is typically up to 20% of the average value. […] The tested cell lines: A549 (lung adenocarcinoma), BJ (noncancerous human fibroblasts from foreskin), BJLD (human lung fibroblast doxorubicin-resistant), CCRF-CEM (childhood T cell acute lymphoblastic leukemia), a daunorubicin-resistant subline of CCRF-CEM cells (CEM-DNR bulk), HCT116 (colorectal carcinoma), HCT116p53−/− (HCT116 with deleted p53 gene), K562 (chronic myeloid leukemia), K562-TAX (chronic myeloid leukemia paclitaxel-resistant subline), MRC-5 (noncancerous human lung fibroblasts), MRC-5LD (noncancerous human lung fibroblasts doxorubicin-resistant), and U2OS (osteosarcoma).
All cell lines were purchased from the American Tissue Culture Collection (ATCC). The A549 cell line is lung adenocarcinoma. MRC-5 and BJ cell lines were used as a non-tumor control and represent human fibroblasts. (MRC-5 LD and BJLD) are doxorubicin-resistant human lung fibroblast cell lines. The CCRF-CEM line is derived from T lymphoblastic leukemia, evincing high chemosensitivity, whereas K562 represent cells from an […] patient sample with bcr-abl translocation. The daunorubicin-resistant subline of CCRF-CEM cells (CEM-DNR bulk) and paclitaxel-resistant subline K562-TAX were selected in our laboratory by the cultivation of maternal cell lines in increasing concentrations of daunorubicin or paclitaxel, respectively. The CEM-DNR bulk cells overexpress MRP-1 and P-glycoprotein protein, whereas K562-TAX cells overexpress P-glycoprotein only. Both proteins belong to the family of ABC transporters and are involved in the primary and/or acquired multidrug-resistance phenomenon. The U2OS cell line is derived from osteosarcoma, HCT116 is a colorectal tumor cell line and its p53 gene knock-down counterpart (HCT116p53−/−, Horizon Discovery Ltd., Cambridge, UK) is a model of human cancers with p53 mutation frequently associated with poor prognosis. The cells were maintained in nunc/corning 80 cm^2 plastic tissue culture flasks and cultured in a cell culture medium according to ATCC or Horizon recommendations (DMEM/RPMI 1640 with 5 g/L glucose, 2 mM glutamine, 100 U/mL penicillin, […], 10% fetal calf serum, and NaHCO3).
The activity of compounds was determined using a standard 3-(4,5-dimethylthiazol-2-yl)-5-(3-carboxymethoxyphenyl)-2-(4-sulfophenyl)-2H-tetrazolium (MTS) and it was performed at the Institute of Molecular and Translational Medicine by a robotic platform (High-ResBiosolutions). Cell suspensions were prepared and diluted according to the particular cell type and the expected target cell density (25,000–35,000 cells/mL based on cell growth characteristics). Cells were added by automatic pipettor (30 µL) into 384-well microtiter plates. All tested compounds were dissolved in 100% DMSO and four-fold dilutions of the intended test concentration were added in 0.15 µL aliquots at time zero to the microtiter plate wells by the echo acoustic non-contact liquid handler Echo550 (Labcyte). […]
(Formazan colour is commonly taken as a measure of viable cells.)

As a reminder, the IC50 is the concentration needed to halve the response being measured. Turning to `COc1cc(OC)c(C(=O)OCCC[S+]([O-])c2ccnc3cc(Cl)ccc23)cc1OC` (stereo not drawn) [Compound 56, 3-[(7-Chloroquinolin-4-yl)sulfinyl]propyl-2,4,5-trimethoxybenzoate], in series [1], the IC50 at 72 h is over 50 µM. The same measure, in the same setting: the figure for `COc1ccccc1C(=O)OCCC[S+]([O-])c1ccnc2cc(Cl)ccc12` (stereo not drawn) [Compound 58, 3-[(7-Chloroquinolin-4-yl)sulfinyl]propyl-2-methoxybenzoate] is over 50 µM. What is called melting point is the temperature, or range, at which the solid turns liquid. As to `CC(C)(C)c1ccc(C(=O)OCC[S+]([O-])c2ccnc3cc(Cl)ccc23)cc1` (stereo not drawn) [Compound 52, 2-[(7-Chloroquinolin-4-yl)sulfinyl]ethyl-4-tert-butylbenzoate], the melting point amounted to 106 °C. In series [1], the IC50 at 72 h was over 50 µM. For `O=C(OCC[S+]([O-])c1ccnc2cc(Cl)ccc12)c1ccc(C(F)(F)F)cc1` (stereo not drawn) [Compound 51, 2-[(7-Chloroquinolin-4-yl)sulfinyl]ethyl-4-(trifluoromethyl)benzoate], in that order: 148 to 150 °C and over 50 µM.
